Holding throughout (type): functional, cell-based
One test deals with A549. As to the kind of experiment: Cytotoxicity against human A549 cells by SRB assay. On the technique in general: In SRB staining, fixed cells bind dye roughly in proportion to their protein.
In the next test the test system is HCT-15. The test can be described thus: Cytotoxicity against human HCT15 cells by SRB assay.
The next test deals with SK-OV-3. The test can be described thus: Cytotoxicity against human SKOV3 cells by SRB assay.
In a further test the test system is SK-MEL-2. As to the kind of experiment: Cytotoxicity against human SK-MEL-2 cells by SRB assay.

The IC50 is the point on the concentration scale where inhibition reaches its midpoint.

As for `CN1CCc2cc3c(cc2[C@@H]1Cc1ccc2c(c1C(=O)O)OCO2)OCO3`, the IC50 was greater than 30 µM in the test with A549, 27.8 µM with HCT-15, greater than 30 µM in the test with SK-OV-3 and greater than 30 µM with SK-MEL-2.

For the compound `COc1ccc(C[C@@H]2c3cc(O)c(OC)cc3CCN2C)cc1O` [(R)-RETICULINE], the IC50 in the test on A549 is greater than 30 µM; with HCT-15, 26.8 µM; with SK-OV-3, greater than 30 µM; in the test with SK-MEL-2 it was greater than 30 µM.

Take `COc1ccc(C[C@H]2c3cc(O)c(OC)cc3CCN2C)cc1O` [(S)-RETICULINE]: the IC50 is greater than 30 µM in the test on A549, 29.4 µM in the test with HCT-15, greater than 30 µM with SK-OV-3 and greater than 30 µM in the test on SK-MEL-2.

As to `COc1ccc2cc3[n+](cc2c1OC)CCc1cc2c(cc1-3)OCO2` [BERBERINE CHLORIDE], the IC50 with A549 turned out to be 6.27 µM; in the test with HCT-15 it was 16.6 µM; with SK-OV-3, 16.4 µM; with SK-MEL-2 it was 13.8 µM.

As to `COc1cc2c(cc1O)C1Cc3ccc4c(c3CN1CC2)OCO4` (stereo not given) [CHEILANTHIFOLINE], the half-inhibitory concentration (IC50) came to 20.6 µM with A549, 29.8 µM in the test on HCT-15, 27.4 µM in the test with SK-OV-3 and 22.2 µM with SK-MEL-2.

As for `c1c2c(cc3c1OCO3)-c1cc3ccc4c(c3c[n+]1CC2)OCO4` [COPTISINE CHLORIDE], the IC50 was 24 µM in the test with A549, 29.1 µM with HCT-15, greater than 30 µM in the test on SK-OV-3 and greater than 30 µM with SK-MEL-2.

With `COc1cc2c(cc1OC)C1Cc3ccc(O)c(OC)c3CN1CC2` (stereo not given) [CORYDALMINE], the concentration for half-maximal inhibition (IC50) was greater than 30 µM in the test with A549, 26.4 µM in the test on HCT-15, 28.5 µM in the test with SK-OV-3 and 27.2 µM with SK-MEL-2.

For the compound `O=C(O)c1c(C[C@@H]2NCCc3cc4c(cc32)OCO4)ccc2c1OCO2` [CORYTERNATINE A], the IC50 is greater than 30 µM in the test on A549, 23.3 µM in the test on HCT-15, greater than 30 µM in the test on SK-OV-3 and greater than 30 µM in the test with SK-MEL-2.

As to `COc1ccc(C[C@@H]2NCCc3cc4c(cc32)OCO4)c(C(=O)O)c1OC` [CORYTERNATINE B], the IC50 was greater than 30 µM with A549, 24.6 µM in the test on HCT-15, greater than 30 µM with SK-OV-3 and greater than 30 µM with SK-MEL-2.

On to `COc1ccc(C[C@H]2NCCc3cc4c(cc32)OCO4)c(C(=O)O)c1OC` [CORYTERNATINE C], for which the half-inhibitory concentration (IC50) with A549 was greater than 30 µM; with HCT-15, 27.6 µM; with SK-OV-3 it was greater than 30 µM; with SK-MEL-2, greater than 30 µM.

Take `COc1cc2c(cc1OC)C1Cc3ccc(O)c(O)c3CN1CC2` (stereo not given) [DEMETHYLCORYDALMINE]: the IC50 in the test with A549 was 8.34 µM; with HCT-15 it was 2.86 µM; with SK-OV-3 it was 5.14 µM; with SK-MEL-2 it was 7.87 µM.

Regarding `COc1cccc2c1C(=O)c1c(O)c3c(c(O)c1C2=O)C[C@@](O)(C(=O)CO)C[C@@H]3O[C@H]1C[C@H](N)[C@H](O)[C@H](C)O1` [DOXORUBICIN], the values for the IC50 in the test with HCT-15, with SK-OV-3 and with SK-MEL-2 were 0.038 µM, 0.003 µM and 0.012 µM, respectively.

For `COc1ccc2c(c1OC)CN1CCc3cc4c(cc3C1C2)OCO4` (stereo not given) [TETRAHYDROBERBERINE], the IC50 was greater than 30 µM in the test on A549, greater than 30 µM in the test with HCT-15, greater than 30 µM in the test with SK-OV-3 and 27.9 µM in the test on SK-MEL-2.

Turning to `COc1c(O)ccc2cc3[n+](cc12)CCc1cc2c(cc1-3)OCO2` [THALIFENDINE], the IC50 in the test on A549 was 28.3 µM; in the test on HCT-15, greater than 30 µM; in the test with SK-OV-3 it was greater than 30 µM; with SK-MEL-2 it was 25.7 µM.
